{"source": "patent US20170313669A1", "about": "“LACTONE COMPOUNDS AND METHODS OF MAKING AND USING SAME” (THE SCRIPPS RESEARCH INSTITUTE, priority 2015, published 2017)", "key": {"ABHD16A−/− macrophages": {"system": "ABHD16A−/− macrophages", "assay": "Lyso-PS and cytokines of ABHD16A−/− macrophages", "assay_type": "cell-based, mouse", "details": "basal or LPS stimulation; 1 μM, 4 h", "description": "Concentration of secreted lyso-PS (a) and cytokines IL-6 (b) and TNF-α (c) from thioglycollate-elicited peritoneal mouse macrophages from ABHD16A^−/− mice treated with inhibitor (KC01 or KC02, 1 μM, 4 h) followed by vehicle (PBS) or LPS (5 μg/mL) for 7 h is shown. Data represent mean±s.e.m. for four biological replicates. KC01 and KC02 have no effect on lyso-PS or cytokine secretion. Other secreted and cellular lipids in ABHD16A^−/− macrophages were also unchanged by KC01 or KC02 treatment (data not shown).\nPeritoneal macrophages were elicited and harvested from mice according to the standard protocols available from LIPID MAPS (See http://www.lipidmaps.org/protocols/PP0000001400.pdf and http://www.lipidmaps.org/protocols/PP0000001500.pdf). After removal of the RBC lysis buffer, the macrophages were re-suspended in RPMI 1640 with 10% FCS and IX penicillin-streptomycin. Cell counts measured using a Bio-Rad TC10 automated cell counter, and equal numbers of cells (2×10^6) were plated in 10 cm tissue culture dishes. Macrophages were allowed to adhere to the plates for 2 h at 37° C. and 5% CO2. […] Macrophages were then stimulated with lipopolysaccharide (5 μg/mL) for 7 hours. Sterile PBS was the vehicle in these studies. Four milliliters of the media was used for measuring secreted metabolites, and 0.5 mL was used for cytokine measurements."}, "ABHD16A [1]": {"molecular_target": "T1, ABHD16A (Homo sapiens, UniProt O95870)", "T1 sequence (O95870 1-558)": "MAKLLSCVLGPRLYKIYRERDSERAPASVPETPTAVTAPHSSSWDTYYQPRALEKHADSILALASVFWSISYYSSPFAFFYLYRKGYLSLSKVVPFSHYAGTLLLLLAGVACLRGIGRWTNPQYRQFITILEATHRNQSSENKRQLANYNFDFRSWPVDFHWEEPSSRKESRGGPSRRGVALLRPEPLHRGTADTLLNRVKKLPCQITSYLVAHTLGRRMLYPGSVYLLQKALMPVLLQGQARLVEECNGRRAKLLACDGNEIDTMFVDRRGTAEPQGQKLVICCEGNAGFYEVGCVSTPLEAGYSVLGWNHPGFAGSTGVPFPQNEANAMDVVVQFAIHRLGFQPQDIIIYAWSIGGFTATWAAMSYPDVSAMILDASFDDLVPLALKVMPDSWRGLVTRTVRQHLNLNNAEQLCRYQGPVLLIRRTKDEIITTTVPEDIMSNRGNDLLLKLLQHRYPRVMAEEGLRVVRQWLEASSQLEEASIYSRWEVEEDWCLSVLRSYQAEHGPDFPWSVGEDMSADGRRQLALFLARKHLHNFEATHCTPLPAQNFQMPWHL", "assay": "ABPP-SILAC, COLO205 cells treated in situ", "assay_type": "cell-based", "design": "All ABPP-SILAC experiments were performed using the human COLO205 colon cancer cell line; endogenous in cells; host or cells: COLO205", "details": "COLO 205, 4 h"}, "PNPLA4": {"molecular_target": "T2, PNPLA4 (Homo sapiens, UniProt P41247)", "T2 construct": "All ABPP-SILAC experiments were performed using the human COLO205 colon cancer cell line; endogenous in cells; host or cells: COLO205", "assay": "ABPP-SILAC of COLO205 membrane proteome treated with compound 8b", "assay_type": "biochemical", "details": "30 min"}, "[2]": {"system": "serine hydrolase targets from mouse brain and COLO205 membrane proteomes", "assay": "Competitive gel-based ABPP of β-lactone probe set", "assay_type": "biochemical", "details": "25 μM, 30 min, 37° C., then FP-rhodamine", "description": "Competitive gel-based ABPP were performed as described previously with slight modifications. See Adibekian et al. Nat. Chem. Biol. (2011) 7, 469. […] The reactions were quenched by adding 40 μL of 4×SDS-PAGE loading buffer for reducing gels, followed by boiling for 2 minutes. All samples were visualized in-gel using an FMBio II Multiview flatbed fluorescence scanner (Hitachi). The fluorescence from rhodamine is presented in gray scale."}, "ABHD16A [3]": {"molecular_target": "T1, ABHD16A", "assay": "ABPP-SILAC of COLO205 membrane proteome treated with compound 8b", "assay_type": "biochemical", "design": "All ABPP-SILAC experiments were performed using the human COLO205 colon cancer cell line; endogenous in cells; host or cells: COLO205", "details": "30 min"}, "FAAH": {"molecular_target": "T3, FAAH (Homo sapiens, UniProt O00519)", "T3 construct": "All ABPP-SILAC experiments were performed using the human COLO205 colon cancer cell line; endogenous in cells; host or cells: COLO205", "assay": "ABPP-SILAC of COLO205 membrane proteome treated with compound 8b", "assay_type": "biochemical", "details": "30 min"}, "CES2": {"molecular_target": "T4, CES2 (Homo sapiens, UniProt O00748)", "T4 construct": "All ABPP-SILAC experiments were performed using the human COLO205 colon cancer cell line; endogenous in cells; host or cells: COLO205", "T4 sequence (O00748 27-559)": "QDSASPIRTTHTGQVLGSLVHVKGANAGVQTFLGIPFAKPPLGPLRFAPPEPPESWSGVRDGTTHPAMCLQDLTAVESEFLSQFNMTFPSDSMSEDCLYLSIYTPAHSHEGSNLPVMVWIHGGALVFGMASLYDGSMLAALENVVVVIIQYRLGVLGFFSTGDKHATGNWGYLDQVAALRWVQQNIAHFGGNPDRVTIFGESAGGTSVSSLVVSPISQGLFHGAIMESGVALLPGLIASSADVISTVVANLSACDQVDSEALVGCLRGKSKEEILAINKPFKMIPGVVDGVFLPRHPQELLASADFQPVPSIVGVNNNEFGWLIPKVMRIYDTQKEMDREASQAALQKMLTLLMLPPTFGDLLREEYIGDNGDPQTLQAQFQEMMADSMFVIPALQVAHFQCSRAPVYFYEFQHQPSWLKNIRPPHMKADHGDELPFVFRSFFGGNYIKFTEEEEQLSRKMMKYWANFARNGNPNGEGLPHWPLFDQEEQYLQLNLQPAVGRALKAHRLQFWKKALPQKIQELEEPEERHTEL", "assay": "ABPP-SILAC of COLO205 membrane proteome treated with compound 8b", "assay_type": "biochemical", "details": "30 min"}, "ABHD3": {"molecular_target": "T5, ABHD3 (Homo sapiens, UniProt Q8WU67)", "T5 construct": "All ABPP-SILAC experiments were performed using the human COLO205 colon cancer cell line; endogenous in cells; host or cells: COLO205", "assay": "ABPP-SILAC of COLO205 membrane proteome treated with compound 8b", "assay_type": "biochemical", "details": "30 min"}, "FASN": {"molecular_target": "T6, FASN (Homo sapiens, UniProt P49327)", "T6 construct": "All ABPP-SILAC experiments were performed using the human COLO205 colon cancer cell line; endogenous in cells; host or cells: COLO205", "assay": "ABPP-SILAC of COLO205 membrane proteome treated with compound 8b", "assay_type": "biochemical", "details": "30 min"}, "ABHD12": {"molecular_target": "T7, ABHD12 (Homo sapiens, UniProt Q8N2K0)", "T7 construct": "All ABPP-SILAC experiments were performed using the human COLO205 colon cancer cell line; endogenous in cells; host or cells: COLO205", "assay": "ABPP-SILAC of COLO205 membrane proteome treated with compound 8b", "assay_type": "biochemical", "details": "30 min"}, "ABHD2": {"molecular_target": "T8, ABHD2 (Homo sapiens, UniProt P08910)", "T8 construct": "All ABPP-SILAC experiments were performed using the human COLO205 colon cancer cell line; endogenous in cells; host or cells: COLO205", "assay": "ABPP-SILAC of COLO205 membrane proteome treated with compound 8b", "assay_type": "biochemical", "details": "30 min"}, "ABHD16A [4]": {"molecular_target": "T1, ABHD16A", "assay": "PS substrate assay, human ABHD16A-transfected HEK293T membrane proteome", "assay_type": "biochemical", "design": "transiently transfected with 12 μg of the full-length cDNA of human ABHD16A (Open Biosystems Catalog # MHS6278-202758315); host or cells: HEK293T, transient, pCMV-SPORT6", "details": "20 μM, 30 min", "description": "HEK293T cells were grown to 40% confluence in a 15 cm dish in 25 mL of Dulbecco's modified Eagle medium (DMEM) supplemented with L-glutamine and 10% (vol/vol) FCS at 37° C. and 5% CO2 (vol/vol). The cells were transiently transfected with 12 μg of the full-length cDNA of human ABHD16A (Open Biosystems Catalog # MHS6278-202758315) or murine ABHD16A (Open Biosystems Catalog # MMM1013-202760516) in pCMV-SPORT6 vector using 40 μg polyethyleneimine “MAX” (MW 40,000) (PEI) (Polysciences Inc. Catalog #24765) as the transfection reagent as per manufacturer's instructions. As a “mock” control, an empty vector was transiently transfected. […] Protein concentration was measured using the Bio-Rad DC Protein Assay Kit as per manufacturer's protocol, and ABHD16A expression was confirmed using gel-based ABPP.\nAll the lipid species used in the lipid substrate hydrolysis assays were purchased from Avanti Polar Lipids Inc unless mentioned otherwise. […] All the data was collected and analyzed using the Agilent MassHunter Workstation software version B.04 using the Data Acquisition and Quantitative Analysis programs respectively. Measuring the area under the peak, and normalizing it to the internal standard quantified the product release for the lipid substrate hydrolysis assays. […] Some products from the substrate hydrolysis assays were detected in positive ion mode for qualitative identification. […]"}, "mouse ABHD16A": {"molecular_target": "T9, mouse ABHD16A (Mus musculus, UniProt Q9Z1Q2)", "T9 construct": "full-length cDNA of human ABHD16A (Open Biosystems Catalog # MHS6278-202758315) or murine ABHD16A (Open Biosystems Catalog # MMM1013-202760516); host or cells: HEK293T, transient, pCMV-SPORT6", "T9 sequence (Q9Z1Q2 1-558)": "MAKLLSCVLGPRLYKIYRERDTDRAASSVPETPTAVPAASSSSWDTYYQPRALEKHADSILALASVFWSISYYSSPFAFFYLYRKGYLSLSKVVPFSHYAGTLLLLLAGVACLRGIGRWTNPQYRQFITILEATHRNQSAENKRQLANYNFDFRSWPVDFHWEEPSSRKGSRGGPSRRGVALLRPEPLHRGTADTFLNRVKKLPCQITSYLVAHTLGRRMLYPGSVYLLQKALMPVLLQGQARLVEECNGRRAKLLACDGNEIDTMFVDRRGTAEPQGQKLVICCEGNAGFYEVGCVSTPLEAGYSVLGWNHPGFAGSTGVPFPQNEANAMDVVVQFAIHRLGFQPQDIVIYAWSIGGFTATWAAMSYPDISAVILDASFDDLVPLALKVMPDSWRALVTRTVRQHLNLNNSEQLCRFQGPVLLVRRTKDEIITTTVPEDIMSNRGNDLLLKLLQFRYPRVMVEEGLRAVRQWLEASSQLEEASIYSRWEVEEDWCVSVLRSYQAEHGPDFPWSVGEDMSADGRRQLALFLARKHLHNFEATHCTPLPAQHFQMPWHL", "assay": "PS substrate assay, mouse ABHD16A-transfected HEK293T proteome", "assay_type": "biochemical", "details": "20 μM, 30 min, 37° C."}, "[5]": {"molecular_target": "T10, ABHD16A (WT and S355A mutant) (Homo sapiens, UniProt O95870)", "T10 construct": "All full-length cDNA constructs coding for serine hydrolases ABHD16A, and ABHD12 were purchased from Open Biosystems; FLAG; expressed in transfected cells; host or cells: HEK293T", "T10 sequence (O95870 whole entry S355A)": "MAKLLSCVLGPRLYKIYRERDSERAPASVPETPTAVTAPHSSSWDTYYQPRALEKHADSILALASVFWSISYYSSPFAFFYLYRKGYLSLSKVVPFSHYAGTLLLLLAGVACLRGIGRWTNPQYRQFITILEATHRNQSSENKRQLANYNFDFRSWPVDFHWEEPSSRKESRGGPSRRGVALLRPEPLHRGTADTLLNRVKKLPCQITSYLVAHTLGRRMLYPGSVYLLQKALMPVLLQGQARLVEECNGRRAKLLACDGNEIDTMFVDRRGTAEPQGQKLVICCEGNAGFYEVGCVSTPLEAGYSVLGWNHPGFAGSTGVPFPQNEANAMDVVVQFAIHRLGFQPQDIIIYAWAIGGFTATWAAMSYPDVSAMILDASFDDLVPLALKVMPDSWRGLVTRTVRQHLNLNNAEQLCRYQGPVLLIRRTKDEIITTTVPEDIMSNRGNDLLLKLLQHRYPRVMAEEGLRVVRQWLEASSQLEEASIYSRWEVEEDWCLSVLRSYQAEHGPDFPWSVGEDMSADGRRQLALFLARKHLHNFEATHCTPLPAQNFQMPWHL", "assay": "Activity-dependent labeling of ABHD16A by WHP01 in transfected HEK293T lysates", "assay_type": "biochemical", "details": "transfected HEK293T cell lysates"}}, "data": [{"smiles": "NC(=O)CCCCC=C1C(=O)OC1CCc1ccccc1", "note": "(mixture of isomers) [KC02, (E/Z)-6-(2-Oxo-4-(2-phenethyl)oxetan-3-ylidene)hexanamide]", "values": [{"measurement": "cellular or secreted lyso-PS, other lipids, secreted IL-6 and TNF-α", "setting": "ABHD16A−/− macrophages", "result": "No changes"}, {"measurement": "inhibition at 1 µM", "setting": "ABHD16A [1]", "result": "< 30", "unit": "%"}]}, {"smiles": "CCCCCCCCCCCCC[C@@H]1OC(=O)[C@H]1Cc1ccccc1", "note": "(relative stereo) [Compound 8b, (trans)-3-benzyl-4-tridecyloxetan-2-one]", "values": [{"measurement": "inhibition at 25 µM", "setting": "PNPLA4", "result": "> 90", "unit": "%"}, {"measurement": "reactivity / inhibition of serine hydrolase activities", "setting": "[2]", "result": "broadest reactivity"}, {"measurement": "inhibition at 25 µM", "setting": "ABHD16A [3]", "result": "> 90", "unit": "%"}, {"measurement": "inhibition at 25 µM", "setting": "FAAH", "result": "> 90", "unit": "%"}, {"measurement": "inhibition at 25 µM", "setting": "CES2", "result": "> 90", "unit": "%"}, {"measurement": "inhibition at 25 µM", "setting": "ABHD3", "result": "70 to 90", "unit": "%"}, {"measurement": "inhibition at 25 µM", "setting": "FASN", "result": "70 to 90", "unit": "%"}, {"measurement": "inhibition at 25 µM", "setting": "ABHD12", "result": "> 90", "unit": "%"}, {"measurement": "inhibition at 25 µM", "setting": "ABHD2", "result": "> 90", "unit": "%"}]}, {"smiles": "CCCCCCCCCCC[C@@H](C[C@@H]1OC(=O)[C@H]1CCCCCC)OC(=O)[C@H](CC(C)C)NC=O", "note": "[THL, tetrahydrolipstatin, reference compound]", "values": [{"measurement": "heightened PS lipase activity of ABHD16A-transfected proteome", "setting": "ABHD16A [4]", "result": "blocked"}, {"measurement": "heightened PS lipase activity of ABHD16A-transfected proteome", "setting": "mouse ABHD16A", "result": "blocked"}]}, {"smiles": "CCCCCCCCCCCCCC1OC(=O)/C1=C\\CCCC(=O)NCCCCCNC(=O)c1ccc(-c2c3ccc(=[N+](C)C)cc-3oc3cc(N(C)C)ccc23)c(C(=O)[O-])c1", "note": "(centres unmarked) [WHP01, (Z)-2-(6-(dimethylamino)-3-(dimethyliminio)-3H-xanthen-9-yl)-5-((5-(5-(2-oxo-4-tridecyloxetan-3-ylidene)pentanamido)pentyl)carbamoyl)benzoate]", "values": [{"measurement": "labeling of ABHD16A", "setting": "[5]", "result": "labeled WT-ABHD16A but not the catalytic serine S355A mutant"}]}]}
